How the values were obtained:
[1] = tested on: skin sections; experiment: Blinded scoring of erythema and edema of UVB-exposed skin sections in a preclinical model; format: in vivo; conditions: UVB 120 mJ/cm^2, 48 hours, blinded panel
Protocol: PHF is a single, multifunctional active that replaces multiple actives of current sunscreen formulations. […] The concentration of PHF was optimized and the minimum concentration of PHF that prevents symptoms of sunburn (erythema and edema) was determined. In a preclinical model, different skin sections were applied with PHF formulation, SPF60 commercial sunscreen, vehicle (without PHF) samples and control (no application). All skin sections were exposed to UVB at 120 mJ/cm^2 dose. The skin sections were monitored for erythema (redness) and edema (swelling) at 24, 48 and 72 hours. Maximum erythema is usually observed at 48 hours. The photographs of skin sections at 48 hours were scored by a panel consisting of two dermatologists and two non-dermatologists. The panel was blinded to the identity of the samples. The result of blinded scoring study is plotted in FIG. 5. […] [table]

[2] = Photolability, comparison of sunscreen actives (Table 1); format: physicochemical; conditions: Table 1 comparison of actives
[3] = tested on: hairless SKH-1 mice; experiment: UV damage in skin of hairless SKH-1 mice after topical PHF
Protocol: PHF (obtained from MER Corp.) was dissolved in water and applied on the right flank (2 cm×1 cm) of the dorsal region of hairless SKH-1 mice. The left flank (2 cm×1 cm) of the same mouse was used as a control with topical application of deionized water. The topical applications were allowed to dry for 15 minutes followed by UV exposure (80 mJ/cm^2; 90% UVB and 10% UVA). […] Mice were euthanized 48 hours post-UV exposure, and the skin was harvested for histological analysis or immunofluorescent staining.

[4] = tested on: Nrf2 pathway; conditions: Ye et al. 2014; cited from earlier work
[5] = cited from earlier work
[6] = cited from earlier work; remark: listed apart in the source
[7] = UV-Visible absorbance spectra of PHF solution vs commercial SPF60 sunscreen; format: physicochemical; conditions: PHF solution 0.5 mg/mL in 25% glycerol
Protocol: The inventors discovered that PHF absorbs UV more effectively than commercial sunscreens. For initial comparisons (FIG. 2), the UV-Vis absorption of PHF solution at 0.5 mg/mL (prepared in 25% glycerol) was compared with Neutrogena SPF 60 (4.9% Titanium dioxide and 4.7% Zinc oxide) sunscreen at 5 mg/mL (in de-ionized water). The total concentration of AI in the commercial sunscreen suspension was equal to that of PHF (0.5 mg/mL) solution. PHF is a broad spectrum UV absorber, as its critical wavelength of 381 nm and UVA/UVB ratio of 1.6 exceeds the FDA limit of 370 nm and 0.91, respectively. The absorbance of PHF is 2.5-1.9 times higher in the UVB region (280-320 nm) and 1.9-1.5 times higher in the UVA region (320-400 nm) than SPF60 sunscreen. This high UV absorptive ability of PHF (for preventing direct damage from UVB and UVA) becomes even more important when combined with other potential advantages of PHF (preventing indirect free radical mediated damage) over current sunscreen AIs, as summarized in Table 1 and FIG. 3.

[8] = 48 hours post-UV exposure, vs water control flank

polyhydroxy fullerene [PHF]
erythema and edema score vs commercial SPF60 sunscreen [1]: on par with commercial SPF60 sunscreen | erythema and edema score vs control and vehicle only ([1]; α=0.01): reduced erythema and edema significantly | Photolabile [2]: No | erythema (sunburn) ([3]; 24 hours after UV exposure (80 mJ/cm^2; 90% UVB and 10% UVA), topical PHF in water vs water control flank): did not show any signs of erythema | DNA photoproducts (cyclopyrimidine dimers, CPD) [3, 8]: fewer DNA photoproducts | epidermal cell death (dyskeratotic sunburn cells), histology [3, 8]: marked reduction in epidermal cell death | recovery of proliferation (Ki-67) [3, 8]: faster recovery of proliferation | Nrf2 pathway activation [4]: activates the Nrf2 pathway | ROS susceptibility ([5]; Table 1 comparison of actives): Catalytically | neutralization of free radicals ([5]; superoxide, nitric oxide, etc., Yin et al. 2009): can catalytically neutralize different types of free radicals | free radical generation on UV absorption ([6]; Krishna et al. 2008): without generating free radicals | Potential ROS generation ([6]; Table 1 comparison of actives): None | UVA/UVB ratio ([7]; FDA limit 0.91): 1.6 | critical wavelength ([7]; FDA limit 370 nm): 381 nm

Source: patent US11957769B2, “Polyhydroxy fullerene sunscreen active agents and compositions” (THE CLEVELAND CLINIC FOUNDATION, priority 2016, dated 2024)
